System: female NMRI mice
Assay: Anorectic action: milk consumption of fasted mice after oral administration
Type: in vivo, mouse
Method: The efficacy of the compounds was tested as follows:
The anorectic action was tested on female NMRI mice. After withdrawal of food for 24 hours, a test preparation of the invention was administered via a stomach tube. Kept individually and with free access to drinking water, the animals were offered evaporated milk 30 minutes after the administration of the preparation. The consumption of evaporated milk was determined half-hourly for 1.5 hours and the general condition of the animals was observed. The measured milk consumption was compared with that of untreated control animals.

SMILES: OC1c2cc(Cl)ccc2C2(O)N=C(c3ccccc3)SC12 (centres unmarked) [Example 1, 6-Chloro-2-phenyl-8,8a-dihydroindeno[1,2-d]thiazole-3a,8-diol]
- cumulated milk consumption of the treated animals (food withdrawn for 24 hours, oral dose 30 mg/kg via stomach tube, evaporated milk offered 30 minutes after administration, consumption determined half-hourly for 1.5 hours): 5/1.06 ml
- Reduction of the cumulated milk consumption in % of the control (oral dose 30 mg/kg, compared to untreated control animals, 1.5 hours): 31%
